Changes are numbered by the printed parent chain. Entries after “also recorded” stand apart in the source; their conditions may differ. Like-named read-outs stand apart in the source and are kept apart here.
Tests used:
GFP-AR = biological target: T1, GFP-AR (Homo sapiens, UniProt P10275); test: Confocal microscopy of PC3 GFP-AR cells (nuclear hyperspeckling); type: cell-based; conditions: 10 μM enantiomer 180 min, 1 nM R1881 90 min
T1 construct: expressed in transfected cells; host or cells: PC3
T1 sequence (P10275 1-920): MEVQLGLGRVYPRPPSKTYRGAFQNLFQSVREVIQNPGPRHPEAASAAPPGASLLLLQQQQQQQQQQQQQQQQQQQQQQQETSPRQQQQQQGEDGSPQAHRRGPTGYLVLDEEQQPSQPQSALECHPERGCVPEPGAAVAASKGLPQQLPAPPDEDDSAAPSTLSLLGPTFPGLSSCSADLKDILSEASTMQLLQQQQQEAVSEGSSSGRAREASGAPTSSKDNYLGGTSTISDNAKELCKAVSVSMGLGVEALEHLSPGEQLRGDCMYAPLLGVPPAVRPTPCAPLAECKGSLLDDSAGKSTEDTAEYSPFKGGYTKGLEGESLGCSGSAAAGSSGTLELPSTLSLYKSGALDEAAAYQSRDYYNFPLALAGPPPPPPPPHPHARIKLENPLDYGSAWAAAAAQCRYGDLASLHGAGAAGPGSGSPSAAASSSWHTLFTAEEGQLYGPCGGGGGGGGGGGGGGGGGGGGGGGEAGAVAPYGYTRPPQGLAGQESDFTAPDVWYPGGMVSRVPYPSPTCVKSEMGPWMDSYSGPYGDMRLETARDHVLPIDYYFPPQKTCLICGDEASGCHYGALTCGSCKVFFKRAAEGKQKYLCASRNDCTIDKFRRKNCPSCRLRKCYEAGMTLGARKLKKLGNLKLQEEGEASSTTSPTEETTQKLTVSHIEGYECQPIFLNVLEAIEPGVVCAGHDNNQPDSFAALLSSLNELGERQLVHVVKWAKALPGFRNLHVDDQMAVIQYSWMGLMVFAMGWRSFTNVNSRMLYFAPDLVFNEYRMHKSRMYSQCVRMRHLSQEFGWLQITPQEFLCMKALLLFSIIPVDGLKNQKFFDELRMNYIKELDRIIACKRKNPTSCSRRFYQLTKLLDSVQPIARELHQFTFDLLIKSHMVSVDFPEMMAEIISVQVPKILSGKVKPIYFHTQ
Procedure: Initial compound testing was performed with PC3 GFP-AR cells and confocal microscopy. First, we tested purified BMS enantiomers (FIG. 6A).
(§1) PC3 and VCaP cell lines were obtained from ATCC and cultured as recommended. Generation and culture of PC3 GFP-AR cells were described previously (14). ARE-luciferase cells were generated using Cignal Lenti AR Reporter (Qiagen). Cell lines were authenticated using NIST-approved short tandem repeat DNA profiling and tested negative for mycoplasma. Drug treatments were conducted after overnight culture in phenol red-free media supplemented with charcoal:dextran stripped FBS.
Confocal Microscopy. PC3 GFP-AR cells were seeded and stained overnight with SiR-DNA ([…]).

[1] = tested on: AR-regulated genes in VCaP cells; test: RT-qPCR array of AR target genes in VCaP cells; type: cell-based; conditions: 82 AR target genes, vs NTC and DHT
Procedure: To test for corresponding transcriptional activation, we performed assays in cells expressing ARE-luciferase. […] Next, we examined gene expression in VCaP cells, a hormone-responsive but independent model of CRPC highly expressing AR.
RT-qPCR Array. RNA was isolated using the Illustra RNAspin Mini Kit (GE Healthcare). RNA was transcribed to cDNA using RT2 First Strand Kit (Qiagen). RT-qPCR was performed using Biorad CFX Connect on a RT2 Profiler PCR Array Human Androgen Receptor Signaling Targets (Qiagen).

AR T878A = biological target: T2, AR T878A (Homo sapiens, UniProt P10275, T878A); test: cell-based; type: cell-based
T2 construct: LNCaP cells expressing AR T878A; endogenous in cells; host or cells: LNCaP-luc (LNCaP stably carrying the Cignal Lenti AR Reporter)
T2 sequence (P10275 1-920 T878A): T1 sequence (P10275 1-920) with T878A
From the text: We generated a LNCaP cell line stably expressing luciferase controlled by androgen response elements (ARE-luciferase).
Cell Culture and Treatments. The LNCaP cell line were obtained from ATCC, cultured in RPMI1640 (Corning) supplemented with 10% heat-inactivated GemCell bovine serum (Gemini Bio-Products) and Penicillin-Streptomycin (Gemini Bio-Products). Cell lines stably expressing ARE-luciferase (LNCaP-luc) was generated using Cignal Lenti AR Reporter (Qiagen) and was continuously cultured with 500 ng/mL Puromycin (Gibco) for positive selection. Cells were maintained at 37° C. in a humidified incubator with 5% carbon dioxide. All cell lines were authenticated using NIST approved short tandem repeat (STR) DNA profiling performed by the University of Arizona Genetics Core and routinely tested negative for mycoplasma.
Luciferase assay. LNCaP-luc cells were seeded in clear flat bottom white polystyrene 96-well plates (Corning) at a density of 12,000 cells/well. […] Dose-response curves were fit using the delta method and t-distribution (n=1). Compounds are tested up to 10 μM.

[2] = Microsome stability assay; type: in vitro ADME, human; conditions: for toxic metabolite BMS-501949 detected in LCMS / active metabolite detected in LCMS: 10 μM drug; for toxic metabolite BMS-501949 detected in LCMS: 8 h incubation, o-fluoro-BMS-501949 for EITM-1707; for active metabolite detected in LCMS: Unnamed metabolite (predicted active) for EITM compounds, BMS-570511 for BMS-641988, 8 h; for half-life at 1 μM / microsomal CLint at 1 μM: human, pooled human liver microsomes, pH 7.4, liver microsomes; for half-life at 1 μM: 1 μM drug, read-out: T½; for microsomal CLint at 1 μM: read-out: rate of intrinsic clearance
Procedure: Microsome stability assays. In vitro metabolism was determined as described previously. Specifically, to measure metabolism of parent compounds, the higher throughput protocol was applied, in which 0.5 mg/ml pooled human liver microsomes (Sigma) were mixed with 1 μM drugs and phosphate buffer (0.1 M, pH 7.4) in 96-well plates. Enzymatic reactions were started by adding 1 mM NADPH (Sigma Aldrich) followed by incubation at 37° C. Fractions were quenched by transfer to ice-cold acetonitrile after the indicated incubation times. Samples were analyzed using liquid chromatography-mass spectrometry (LC/MS-MS). Rates of intrinsic clearance were determined from the amount of the parent compound consumed per min per mg of microsomal protein as described previously. To analyze accumulating metabolites, the basic protocol was used, and microsomes were incubated with 10 μM drugs for 8 h.

LNCaP cells = test: LNCaP cell viability assay (CellTiter-Glo); type: cell-based; conditions: 1 and 10 μM drug + 60 pM R1881, 5 days
Procedure: LNCaP cell viability assay. Cells were seeded into 96-well fibronectin coated (1 ug/cm^2) plates (CellCarrier, PerkinElmer) at a density of 5,000 cells/well. […] Drug-treated cells were lysed with CellTiter-Glo 3D Cell Viability Assay (Promega) and transferred to white 96-well plates (Corning). Luminescence was measured utilizing GloMax 96 Microplate Luminometer (Promega). Analysis was conducted in the R statistical environment (v 3.6.0). […] Visualizations were facilitated by the ggplot2 package (v3.2.1), with standard error (S.E.) shown where appropriate.

VCaP cells = test: VCaP viability assay (CellTiter-Glo); type: cell-based
Procedure: as §1
Luminometer Assays. For ARE-luciferase, luciferase substrate was added to lysed cells after 24-h treatment. For viability, cells were lysed with CellTiter-Glo 3D Cell Viability Assay (Promega) after 6 d of treatment. Measurements were performed in 96-well plates (Corning) using a GloMax 96 Microplate Luminometer (Promega).

Compound | nuclear hyperspeckling, in words (GFP-AR) | AR-dependent gene expression, in words [1] | AR agonism / antagonism in LNCaP ARE-luciferase, in words (AR T878A) | EC50 (AR T878A) [nM] | ED50 (AR T878A) | Emax (AR T878A) | toxic metabolite BMS-501949 detected in LCMS [2] | active metabolite detected in LCMS [2] | half-life at 1 μM [2] [h] | microsomal CLint at 1 μM [2] [µL/min/mg] | LNCaP proliferation / viable cells, in words (LNCaP cells) | Emax (AR T878A; LNCaP) [%] | R1881-induced growth, in words (VCaP cells; 10 μM drug + 1 nM R1881, 6-d treatment) | (S)-enantiomer fraction that halved the drug effect, cell viability (VCaP cells; 10 μM mixture + 1 nM R1881, 6 d, 95% CI (0.2%, 0.4%)) [%] | (S)-enantiomer fraction that rescued the proliferation phenotype, cell viability (VCaP cells; 10 μM mixture + 1 nM R1881, 6 d, 95% CI (0.7%, 3.7%)) [%] | IC50 (VCaP cells; Homo sapiens, VCaP) [nM] | toxic metabolite BMS-501949 detected in LCMS ([2]; listed as (R)-EITM-1702)
CCS(=O)(=O)N[C@H]1C[C@]2(C)O[C@@]1(C)[C@H]1C(=O)N(c3ccc(C#N)c(C(F)(F)F)c3)C(=O)[C@H]12 [(S)-BMS, N-((3aS,4S,5S,7S,7aR)-2-(4-cyano-3-(trifluoromethyl)phenyl)-4,7-dimethyl-1,3-dioxooctahydro-1H-4,7-epoxyisoindol-5-yl)ethanesulfonamide] | caused substantial hyperspeckling, comparable to that of R1881 | – | – | – | – | – | – | – | – | – | – | – | – | – | – | – | –
CC(O)c1cc(C(=O)N[C@H]2C[C@]3(C)O[C@@]2(C)[C@H]2C(=O)N(c4ccc(C#N)c(C(F)(F)F)c4F)C(=O)[C@H]23)n[nH]1 (stereo partly drawn) [(S)-EITM-1707, N-((3aS,4S,5S,7S,7aR)-2-(4-cyano-2-fluoro (trifluoromethyl)phenyl)-4,7-dimethyl-1,3-dioxooctahydro-1H-4,7-epoxyisoindol-5-yl)-5-(1-hydroxyethyl)-1H-pyrazole-3-carboxamide] | – | rescued the castration phenotype, mimicking DHT | – | – | – | – | – | – | – | – | – | – | – | – | – | – | –
CCS(=O)(=O)N[C@@H]1C[C@@]2(C)O[C@]1(C)[C@@H]1C(=O)N(c3ccc(C#N)c(C(F)(F)F)c3)C(=O)[C@@H]12 [BMS-641988, N-((3aR,4R,5R,7R,7aS)-2-(4-cyano-3-(trifluoromethyl)phenyl)-4,7-dimethyl-1,3-dioxooctahydro-1H-4,7-epoxyisoindol-5-yl)ethanesulfonamide, reference compound] | inhibited R1881-induced hyperspeckling | – | potent agonist in LNCaP cells; also recorded: induced ARE-luciferase without addition of R1881 | 94 ± 22 | agonist | agonist | accumulated and yes | yes | 1.44 | 10.1 | promoted proliferation | – | – | – | – | – | –
C[C@]12O[C@](C)(C[C@H]1NC(=O)c1cc[nH]n1)[C@H]1C(=O)N(c3ccc(C#N)c(C(F)(F)F)c3)C(=O)[C@H]12 [EITM-1702, N-((3aR,4R,5R,7R,7aS)-2-(4-cyano-3-(trifluoromethyl)phenyl)-4,7-dimethyl-1,3-dioxooctahydro-1H-4,7-epoxyisoindol-5-yl)-1H-pyrazole-3-carboxamide] | – | – | robust antagonistic activities without notable agonism | 570 | – | – | not detected | yes | 0.944 | 15.3 | almost phenocopying castrate conditions; also recorded: inhibited the growth of LNCaP prostate cancer cells | 8 | visibly suppressed R1881-induced growth | 0.3 | 2.2 | 540 | no

Reference: patent US12552806B2, “Androgen receptor regulation by small molecule enantiomers” (University of Southern California, priority 2020, dated 2026)
